Test results reported in article PMC11110727, “Exploiting thiol-functionalized benzosiloxaboroles for achieving diverse substitution patterns – synthesis, characterization and biological evaluation of promising antibacterial agents” (RSC Medicinal Chemistry, 2024).

Legend:
S. aureus ATCC 6538P = assay: Antibacterial activity: MIC/MBC determination and disc-diffusion; format: cell-based, Staphylococcus aureus; settings: S. aureus ATCC 6538P
Procedure: (§1) Direct antimicrobial activity was determined against the following standard strains: (1) Gram-positive cocci: methicillin-sensitive Staphylococcus aureus ATCC 6538P (MSSA), methicillin-resistant S. aureus subsp. aureus ATCC 43300 (MRSA), S. epidermidis ATCC 12228, Enterococcus faecium ATCC 6057, E. faecalis ATCC 29212, Bacillus subtilis ATCC 6633; (2) Gram-negative bacteria from Enterobacteriales order: Klebsiella pneumoniae ATCC 13883, Escherichia coli ATCC 25922, Enterobacter cloacae DSM 6234, Proteus mirabilis ATCC 12453, Serratia marcescens ATCC 13880; (3) Gram-negative non-fermentative rods: Acinetobacter baumannii ATCC 19606, Pseudomonas aeruginosa ATCC 27853, Stenotrophomonas maltophilia ATCC 12714, S. maltophilia ATCC 13637, Burkholderia cepacia ATCC 25416, Bordetella bronchiseptica ATCC 4617; (4) yeasts: Candida albicans ATCC 90028, C. krusei ATCC 6258, C. parapsilosis ATCC 22019, C. tropicalis (Castellani) Berkhout ATCC 750, C. tropicalis IBA 171, C. guilliermondii IBA 155, and Saccharomyces cerevisiae ATCC 9763. Moreover, 5 clinical strains of methicillin-resistant S. aureus were also included: NMI 664 K, NMI 1576 K, NMI 1712 K, NMI 1991 K, and NMI 2541 K. All strains were stored at −80 °C. Prior to testing, each bacterial strain was subcultured twice on tryptic soy agar TSA (bioMerieux) medium and yeast strains on Sabouraud dextrose agar (bioMerieux) for 24–48 h at 30 °C to ensure viability. The antimicrobial activity was evaluated as previously described[26] by the disc-diffusion method and the MIC determination assays according to the EUCAST (ref. [71] and [72]) and CLSI (ref. [53] and [73]) recommendations. Assessment of bactericidal (MBC) and fungicidal (MFC) activities was performed according to the CLSI recommendations.[54,74] The following reference agents were used: fluconazole (in the case of fungi), linezolid (for Gram-positive bacteria), and nitrofurantoin (for Gram-negative rods). The new benzosiloxaboroles were dissolved in DMSO (Sigma).

[1] = test system: Human normal lung fibroblasts MRC-5; assay: MTT-based viability (cytotoxicity) assay; settings: Homo sapiens, MRC5, 48 h
Procedure: To evaluate the cytotoxic effect of the tested compounds, an MTT-based assay was performed. […] Moreover, based on available IC50 and MIC (for standard and clinical S. aureus MRSA strains) values, the selectivity index (SI) was calculated for several compounds as the IC50/MIC ratio (Table 5).[60]
MRC-5 pd30 human fibroblasts (ECACC) were cultured in MEME, Minimum Essential Medium Eagle (Merck), supplemented with 10% fetal bovine serum (Merck), 2 mM L-glutamine, antibiotics (100 U mL^−1 penicillin, 100 μg mL^−1 streptomycin, Merck) and 1% non-essential amino acids (Merck). Cells were grown in 75 cm^2 cell culture flasks (Sarstedt), in a humidified atmosphere of CO2/air (5/95%) at 37 °C. MTT-based viability assay was conducted as described previously.[26] Optical densities were measured at 570 nm using a BioTek microplate reader. All measurements were carried out in three replicates and the results expressed as a percent of viable cells versus control cells. […] The selectivity index (SI) was calculated as [drawing 30] , in accordance with previously described protocols.[60]

[2] = test system: S. epidermidis ATCC 12228; assay: Antibacterial activity: MIC/MBC determination and disc-diffusion; format: cell-based; settings: Staphylococcus epidermidis, ATCC12228, S. epidermidis ATCC 12228
Procedure: as §1

E. faecalis ATCC 29212 = assay: as above; format: cell-based; settings: Enterococcus faecalis, ATCC29212, E. faecalis ATCC 29212
Procedure: as §1

E. faecium ATCC 6057 = assay: as above; format: cell-based; settings: Enterococcus faecium, ATCC6057, E. faecium ATCC 6057
Procedure: as §1

[3] = test system: S. aureus ATCC 43300 MRSA; assay: as above; format: cell-based; settings: Staphylococcus aureus, S. aureus ATCC 43300 MRSA
Procedure: as §1

[4] = test system: S. aureus NMI 1712 K MRSA; assay: Antibacterial activity against clinical MRSA: MIC/MBC; format: cell-based; settings: Staphylococcus aureus, NMI 1712 K MRSA
Procedure: as §1

S. aureus NMI 664 K MRSA = assay: as above; format: cell-based; settings: Staphylococcus aureus, NMI 664 K MRSA
Procedure: as §1

[5] = test system: S. aureus NMI 2541 K MRSA; assay: as above; format: cell-based; settings: Staphylococcus aureus, NMI 2541 K MRSA
Procedure: as §1

[6] = test system: S. aureus NMI 1576 K MRSA; assay: as above; format: cell-based; settings: Staphylococcus aureus, NMI 1576 K MRSA
Procedure: as §1

[7] = test system: S. aureus NMI 1991 K MRSA; assay: as above; format: cell-based; settings: Staphylococcus aureus, NMI 1991 K MRSA
Procedure: as §1

S. aureus MRSA LeuRS = molecular target: T1, S. aureus MRSA LeuRS (Staphylococcus aureus, UniProt P67513); assay: In vitro aminoacylation (enzyme inhibition) assay; format: biochemical; settings: read-out: residual activity of S. aureus MRSA LeuRS
T1 construct: The LeuRS gene from MRSA (PW-71) was amplified by PCR; made in house; host or cells: E. coli BL21(DE3)pLys
Procedure: We have undertaken research devoted to determining the most probable mechanism of antibacterial action. […] Considering structural similarity to benzoxaboroles we assumed that benzosiloxaboroles are active through this mechanism. Our working hypothesis was supported by the fact that benzosiloxaboroles are rather bacteriostatic than bactericidal,[26,27] which is consistent with the specificity of the OBORT mechanism. The enzyme inhibition assay was performed for compound 20 as it features high activity against S. aureus MRSA strains and the respective favorable SI = 19.5 (Table 5). […] We obtained S. aureus MRSA LeuRS in the E. coli expression system. From 400 mL culture, approximately 20 mg of 6× His tagged LeuRS (with a molecular mass of 92.3 kDa) was purified to more than 90% homogeneity, which was confirmed by sodium dodecylsulfate-polyacrylamide gel electrophoresis (SDS-PAGE; Fig. S2, ESI ^†). Next, we used an in vitro aminoacylation assay to investigate the ability of 20 to inhibit S. aureus MRSA LeuRS activity consistent with affecting the transfer of the ^14C-radiolabeled leucine to a total tRNA. […] (residual activity 30.8% at 25 μM).
The LeuRS gene from MRSA (PW-71) was amplified by PCR using the following primers: 5′-[…]-3′ and 5′-[…]-3′. The amplified leuRS was digested with BamHI and NotI and ligated into pETDuet-1 vector (Novagen) which carries an N-terminal His tag. After sequencing, the pETDuet1-leuRS plasmid was transformed into E. coli BL21(DE3)pLys cells, which were then grown overnight in 20 mL of Luria–Bertani (LB) medium containing 100 μg mL^−1 ampicillin and 30 μg mL^−1 chloramphenicol. Then the overnight culture was inoculated into 400 mL of Super Broth medium containing ampicillin and chloramphenicol at the same concentration, and the cells were grown until the OD600 reached 0.6. […] The protein concentration in the final solution was 2.86 mg mL^−1 (determined by the Bradford method and bovine serum albumin as a standard).[78] […]

[8] = read-out: MBC (first MBC where Eagle effect)

T1 sequence (P67513 whole entry): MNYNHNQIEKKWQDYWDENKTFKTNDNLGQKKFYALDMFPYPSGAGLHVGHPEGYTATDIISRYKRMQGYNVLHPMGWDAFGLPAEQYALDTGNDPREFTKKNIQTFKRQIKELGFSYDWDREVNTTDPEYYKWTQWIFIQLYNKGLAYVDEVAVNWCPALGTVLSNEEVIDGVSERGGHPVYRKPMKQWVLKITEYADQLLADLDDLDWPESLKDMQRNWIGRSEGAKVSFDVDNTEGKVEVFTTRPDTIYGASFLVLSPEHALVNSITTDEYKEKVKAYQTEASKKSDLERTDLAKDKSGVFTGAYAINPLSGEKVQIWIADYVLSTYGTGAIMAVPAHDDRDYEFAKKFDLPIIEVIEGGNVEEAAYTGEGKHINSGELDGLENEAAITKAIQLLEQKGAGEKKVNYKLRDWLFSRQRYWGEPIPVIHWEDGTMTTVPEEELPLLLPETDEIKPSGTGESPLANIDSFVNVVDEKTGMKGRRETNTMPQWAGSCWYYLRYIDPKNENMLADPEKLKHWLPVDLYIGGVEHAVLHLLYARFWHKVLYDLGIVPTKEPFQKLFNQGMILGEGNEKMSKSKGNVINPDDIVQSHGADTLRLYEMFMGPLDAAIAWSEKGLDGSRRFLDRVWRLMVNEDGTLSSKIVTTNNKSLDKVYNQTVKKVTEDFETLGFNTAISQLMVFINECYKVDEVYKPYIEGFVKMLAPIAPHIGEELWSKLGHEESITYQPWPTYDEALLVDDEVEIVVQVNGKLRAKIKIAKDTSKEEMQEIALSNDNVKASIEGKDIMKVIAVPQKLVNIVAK

CC(=O)NC[C@H]1CN(c2ccc(N3CCOCC3)c(F)c2)C(=O)O1 [LIN, linezolid, reference compound]
2 µg/mL: MIC (E. faecalis ATCC 29212; read-out: MIC) | MIC (E. faecium ATCC 6057; read-out: MIC) | MIC ([3]; read-out: MIC)
1 µg/mL: MIC (S. aureus ATCC 6538P; Staphylococcus aureus, ATCC6538P, read-out: MIC) | MIC ([2]; read-out: MIC) | MIC ([4]; read-out: MIC) | MIC (S. aureus NMI 664 K MRSA; read-out: MIC) | MIC ([5]; read-out: MIC) | MIC ([6]; read-out: MIC) | MIC ([7]; read-out: MIC)
> 128 µg/mL: MBC (S. aureus ATCC 6538P; Staphylococcus aureus, ATCC6538P, read-out: MBC (first MBC where Eagle effect)) | MBC [2] | MBC (E. faecalis ATCC 29212) | MBC (E. faecium ATCC 6057) | MBC [3, 8] | MBC [4, 8] | MBC (S. aureus NMI 664 K MRSA; [8]) | MBC [5, 8] | MBC [6, 8] | MBC [7, 8]
> 400 µg/mL: IC50 [1]
25 mm: diameter of inhibition zone (S. aureus ATCC 6538P; disc-diffusion, — = zone not observed)

Nc1ccc(S(=O)(=O)Nc2ccc3c(c2)B(O)OC3)cc1 [PT662, reference compound]
30.8%: remaining activity at 25 µM (S. aureus MRSA LeuRS)
